Results from patent US20090156517A1, “STABLE PHARMACEUTICAL COMPOSITIONS OF AMINOGLYCOSIDE ANTIBIOTICS, ION-CHELATING AGENTS, AND BUFFERS” (priority 2006, published 2009).
Values belong to the compound of their own block, whether it stands above or below them.

Test: Amounts of antibiotic components in the solution over time (reverse-phase LC/UV for β-lactams and β-lactamase inhibitors, HPLC/evaporation-light-scattering for aminoglycosides)
Type: physicochemical
Procedure: The amounts of β-lactam antibiotics and β-lactamase inhibitor were determined using C18 reverse-phase LC and UV-VIS detector (Tianjin […] Co., Ltd., analysis method No. HM-K-03). The content of aminoglycoside antibiotics was measured using reverse-phase HPLC and evaporation-light-scattering detector (Tianjin […] Co., Ltd., analysis method No. HM-K-08). […] The relative amount of each antibiotic component in the composition at each time point was expressed as peak area ratio with respect to the corresponding peak area of an external standard.

Amount of component, percentage of amount at initial time (Example 9: freeze-dried amikacin sulfate/disodium EDTA/citrate pH 6.5 powder stored 7 days at 0° C., redissolved, mezlocillin sodium added, 0 h): 94.68%
Amount of component, percentage of amount at initial time (Example 9: freeze-dried amikacin sulfate/disodium EDTA/citrate pH 6.5 powder stored 7 days at 0° C., redissolved, mezlocillin sodium added, 1 h): 95.90%
Amount of component, percentage of amount at initial time (Example 9: freeze-dried amikacin sulfate/disodium EDTA/citrate pH 6.5 powder stored 7 days at 0° C., redissolved, mezlocillin sodium added, 2 h): 71.70%
Amount of component, percentage of amount at initial time (Example 9: freeze-dried amikacin sulfate/disodium EDTA/citrate pH 6.5 powder stored 7 days at 0° C., redissolved, mezlocillin sodium added, 4 h): 91.78%
Amount of component, percentage of amount at initial time (Example 9: freeze-dried amikacin sulfate/disodium EDTA/citrate pH 6.5 powder stored 7 days at 0° C., redissolved, mezlocillin sodium added, 6 h): 93.08%
Amount of component, percentage of amount at initial time (Example 9: freeze-dried amikacin sulfate/disodium EDTA/citrate pH 6.5 powder stored 7 days at 0° C., redissolved, mezlocillin sodium added, 8 h): 97.69%
Structure (SMILES): CC1(C)S[C@@H]2[C@H](NC(=O)[C@H](NC(=O)N3CCN(S(C)(=O)=O)C3=O)c3ccccc3)C(=O)N2[C@H]1C(=O)O [Mezlocillin sodium, mezlocillin sodium]

Amount of component, percentage of amount at initial time (Example 10: piperacillin sodium/sulbactam sodium solution cryopreserved 7 days, thawed, pH 6.0, etimicin sulfate added, no EDTA, 0 h): 101.8%
Amount of component, percentage of amount at initial time (Example 10: piperacillin sodium/sulbactam sodium solution cryopreserved 7 days, thawed, pH 6.0, etimicin sulfate added, no EDTA, 1 h): 101.3%
Amount of component, percentage of amount at initial time (Example 10: piperacillin sodium/sulbactam sodium solution cryopreserved 7 days, thawed, pH 6.0, etimicin sulfate added, no EDTA, 2 h): 101.8%
Amount of component, percentage of amount at initial time (Example 10: piperacillin sodium/sulbactam sodium solution cryopreserved 7 days, thawed, pH 6.0, etimicin sulfate added, no EDTA, 4 h): 101.2%
Amount of component, percentage of amount at initial time (Example 10: piperacillin sodium/sulbactam sodium solution cryopreserved 7 days, thawed, pH 6.0, etimicin sulfate added, no EDTA, 6 h): 98.3%
Amount of component, percentage of amount at initial time (Example 10: piperacillin sodium/sulbactam sodium solution cryopreserved 7 days, thawed, pH 6.0, etimicin sulfate added, no EDTA, 8 h): 95.1%
Amount of component, percentage of amount at initial time (Example 11: solution of Example 10 freeze-dried, stored 7 days at 0° C., redissolved, pH 6.0, etimicin sulfate and disodium EDTA added, 0 h): 101.8%
Amount of component, percentage of amount at initial time (Example 11: solution of Example 10 freeze-dried, stored 7 days at 0° C., redissolved, pH 6.0, etimicin sulfate and disodium EDTA added, 1 h): 101.3%
Amount of component, percentage of amount at initial time (Example 11: solution of Example 10 freeze-dried, stored 7 days at 0° C., redissolved, pH 6.0, etimicin sulfate and disodium EDTA added, 2 h): 101.8%
Amount of component, percentage of amount at initial time (Example 11: solution of Example 10 freeze-dried, stored 7 days at 0° C., redissolved, pH 6.0, etimicin sulfate and disodium EDTA added, 4 h): 101.2%
Amount of component, percentage of amount at initial time (Example 11: solution of Example 10 freeze-dried, stored 7 days at 0° C., redissolved, pH 6.0, etimicin sulfate and disodium EDTA added, 6 h): 98.3%
Amount of component, percentage of amount at initial time (Example 11: solution of Example 10 freeze-dried, stored 7 days at 0° C., redissolved, pH 6.0, etimicin sulfate and disodium EDTA added, 8 h): 95.1%
Amount of component, percentage of amount at initial time (Example 12: thawed solution from Example 10, pH 6.0, amikacin sulfate added, no EDTA, 0 h): 101.8%
Amount of component, percentage of amount at initial time (Example 12: thawed solution from Example 10, pH 6.0, amikacin sulfate added, no EDTA, 1 h): 101.3%
Amount of component, percentage of amount at initial time (Example 12: thawed solution from Example 10, pH 6.0, amikacin sulfate added, no EDTA, 2 h): 101.8%
Amount of component, percentage of amount at initial time (Example 12: thawed solution from Example 10, pH 6.0, amikacin sulfate added, no EDTA, 4 h): 101.2%
Amount of component, percentage of amount at initial time (Example 12: thawed solution from Example 10, pH 6.0, amikacin sulfate added, no EDTA, 6 h): 98.3%
Amount of component, percentage of amount at initial time (Example 12: thawed solution from Example 10, pH 6.0, amikacin sulfate added, no EDTA, 8 h): 95.1%
Structure (SMILES): CCN1CCN(C(=O)N[C@@H](C(=O)N[C@@H]2C(=O)N3[C@@H]2SC(C)(C)[C@@H]3C(=O)O)c2ccccc2)C(=O)C1=O [Piperacillin, piperacillin]
